In patent publication US12509421B2, “Preparation and application of deuterated 4-phenyl-4-piperidinols” (priority 2022, dated 2025):
Structures can show the parent of a compound that is named as a salt.

Assays:
[1] = Metabolic stability in liver microsomes, rat; settings: for half-life at 2 μM / microsomal CLint at 2 μM: rat, microsomes, pH 7.4
Procedure: (§1) The solution B is slowly dropped into solution A, and the pH is adjusted to 7.40±0.05.
(§2) • Control drug: 4 μL Verapamil solution (10 mM) is added with 96 μL DMSO and diluted to 400 μM; • Compound to be tested: 4 μL compound to be tested (10 mM) is added with 96 μL normal saline and diluted to 400 μM.
(§3) The microsomes are stored in the refrigerator at −80° C., thawed at room temperature after being taken out, and mixed gently.
(§4) […] PBS (100 mm, pH=7.4) solution is added to the negative sample. The solution is put into water bath at 37° C. and pre-incubated for 10 minutes; • B) After incubation, 2 μL reference drug or compound to be tested (400 μM) are added into each well to start the reaction.

[2] = molecular target: CYP 2C19 (Homo sapiens, UniProt P33261); assay: Inhibition of cytochrome P450 enzyme in human liver microsomes, CYP 2C19
[3] = molecular target: CYP 2D6 (Homo sapiens, UniProt P10635); assay: Inhibition of cytochrome P450 enzyme in human liver microsomes, CYP 2D6
[4] = molecular target: T1, CYP 1A2 (Homo sapiens, UniProt P05177); assay: Inhibition of cytochrome P450 enzyme in human liver microsomes, CYP 1A2
T1 sequence (P05177 1-516): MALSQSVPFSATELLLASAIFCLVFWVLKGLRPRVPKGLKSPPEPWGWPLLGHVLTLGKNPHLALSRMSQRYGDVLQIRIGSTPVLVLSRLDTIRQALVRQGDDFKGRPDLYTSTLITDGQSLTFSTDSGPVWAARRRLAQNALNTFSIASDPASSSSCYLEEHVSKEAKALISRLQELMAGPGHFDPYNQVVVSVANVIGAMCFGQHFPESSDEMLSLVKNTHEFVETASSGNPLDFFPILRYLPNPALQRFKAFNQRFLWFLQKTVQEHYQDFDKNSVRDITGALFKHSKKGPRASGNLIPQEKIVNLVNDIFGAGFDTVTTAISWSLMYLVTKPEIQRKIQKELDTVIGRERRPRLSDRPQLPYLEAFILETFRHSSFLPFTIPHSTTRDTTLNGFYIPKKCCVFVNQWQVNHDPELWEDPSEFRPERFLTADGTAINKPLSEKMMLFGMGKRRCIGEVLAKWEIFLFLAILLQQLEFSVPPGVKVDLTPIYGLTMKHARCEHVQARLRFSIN

[5] = molecular target: T2, κOR (Homo sapiens, UniProt P41145); assay: Opioid receptor competitive binding test, κOR; settings: compound at 10 μM; [3H]-labeled ligand; CHO cell membranes; ± SD of three measurements
T2 construct: expressed in transfected cells; host or cells: CHO cells
Procedure: (§5) CHO cells expressing p opioid receptor, δ opioid receptor and K opioid receptor are cultured in a 10 cm^2 Petri dish (F-12 medium+10% newborn bovine serum) for several days, and the culture solution is sucked after the cells grew to the bottom of the dish. 3 ml PBS/EDTA solution (0.1M NaCl, 0.01M NaH2PO4, 0.04% EDTA) is added for digestion for 3-5 minutes. The cells are blown with a straw to get fall off completely, collected in a 40 ml centrifuge tube, centrifuged at 5000 rpm for 5 minutes, and removed with the supernatant. The centrifuge tube is added with ice-cold homogenate (50 mM HEPES PH 7.4, 3 mM MgCl2, 1 mM EGTA). The solution and precipitate are transferred to homogenizer for homogenization; Then the homogenate is transferred into a centrifuge tube, centrifuged at 18000 rpm for 15 minutes, and centrifuged twice; the obtained precipitate is added with an appropriate amount of buffer solution of 50 mM Tris-HCl and pH 7.4, homogenized and sub-packaged in centrifuge tubes. The product is stored in a refrigerator at −70° C. for later use.
(§6) 20-30 μg expressed membrane receptor protein and [3H]-labeled ligand (1-2 nM) are added to the total binding tube, added with 1 μM of corresponding ligand to the corresponding nonspecific binding tube. Various screened opioid ligand drugs (see the drug compounds in Table 1 below) are added to the sample tube with 100 μL final volume. The sample is incubated at 30° C. for 30 minutes, and the reaction is terminated in ice water. The glass fiber filter paper gF/C (whatman) is used for negative pressure filtration on Millipore sample collector. The sample is eluted with 4 ml 50 mm tris-HCl (pH 7.4) for three times, dried with the filter paper, put in 0.5 ml Eppendorf tube and added with 0.5 ml lipophilic scintillation liquid. The radioactive intensity is measured with PERKIN ELMER PRI-CARB 2910 liquid scintillation counter with calculation of the inhibition rate. The experiment is repeated for more than three times, with three compound tubes in each group. Inhibition rate(or binding rate)=(total binding rate dpm−sample tube dpm)/(total binding tube dpm-nonspecific binding tube dpm)×100%
(§7) IC50 is calculated with Prism 5.0 software. The Ki value is calculated according to the following formula: Ki=IC50/(1^+[L]/Kd), wherein [L] is the concentration of the added labeled ligand, and Kd is the equilibrium dissociation parameter of the labeled ligand.

[6] = molecular target: T3, δOR (Homo sapiens, UniProt P41143); assay: Opioid receptor competitive binding test, δOR; settings: compound at 10 μM; [3H]-labeled ligand; CHO cell membranes; ± SD of three measurements
T3 construct: expressed in transfected cells; host or cells: CHO cells
Procedure: as §5, §6, §7

[7] = molecular target: CYP 3A4 (Homo sapiens, UniProt P08684); assay: biochemical; settings: CYP 3A4 IC50, human liver microsomes
[8] = Metabolic stability in liver microsomes, human; settings: for half-life at 2 μM / microsomal CLint at 2 μM: human, microsomes, pH 7.4
Procedure: as §1, §2, §3, §4

[9] = Metabolic stability in liver microsomes, mouse; settings: for half-life at 2 μM / microsomal CLint at 2 μM: mouse, microsomes, pH 7.4
Procedure: as §1, §2, §3, §4

[10] = Rat liver microsomes 0.5 mg/mL, NADPH 1 mM, compound 2 μM
[11] = Human liver microsomes 0.5 mg/mL, NADPH 1 mM, compound 2 μM
[12] = Mouse liver microsomes 0.5 mg/mL, NADPH 1 mM, compound 2 μM

SMILES | half-life at 2 μM [1] [min] | microsomal CLint at 2 μM [1] [µL/min/mg] | IC50 [2] [µM] | IC50 [3] [µM] | IC50 [4] [µM] | κOR binding rate [5] [%] | δOR binding rate [6] [%] | IC50 ([7]; substrate midazolam) [µM] | IC50 ([7]; substrate testosterone) [µM] | half-life at 2 μM [8] [min] | microsomal CLint at 2 μM [8] [µL/min/mg] | half-life at 2 μM [9] [min] | microsomal CLint at 2 μM [9] [µL/min/mg] | CLint [1, 10] [μL/min/mg protein] | t1/2 [1, 10] [min] | CLint [8, 11] [μL/min/mg protein] | t1/2 [8, 11] [min] | CLint [9, 12] [μL/min/mg protein] | t1/2 [9, 12] [min]
[2H]C([2H])([2H])N(C)C[C@@H]1CN(S(=O)(=O)Cc2ccccc2)CC[C@@]1(O)c1cccc(OC)c1 [II-1hydrochloride] | 5.63 | 701 | > 50 | 13 | > 50 | 16.37 ± 1.6 | 11.6 ± 2.1 | 42.9 | 41.9 | 5.22 | 663 | 5.19 | 659 |  |  |  |  |  | 
COc1cccc([C@]2(O)CCN(S(=O)(=O)Cc3ccccc3)C[C@H]2CN(C)C)c1.Cl [Example 20 of CN201911076305.X, reference compound] |  |  |  |  |  | 15.25 ± 1.56 | 10.5 ± 3.7 |  |  |  |  |  |  | 747.68 | 1.85 | 950.42 | 1.46 | 1101.92 | 1.26
[2H]C([2H])([2H])N(C)C[C@@H]1CN(C(=O)Cc2cc(F)c(F)cc2F)CC[C@@]1(O)c1cccc(OC)c1 [II-7hydrochloride, 1-((3R,4S)-4-hydroxy-4-(3-methoxyphenyl)-3-(((methyl-d3)amino)methyl)-1-piperidinyl)-2(2,4,5-trifluorophenyl)ethyl-1-one] | 5.68 | 689 | > 50 | 14.7 | > 50 | 16.6 ± 2.9 | 10.6 ± 2.0 | 49.7 | 47.5 | 5.42 | 681 | 5.15 | 661 |  |  |  |  |  | 
[2H]C([2H])([2H])Oc1cccc([C@]2(O)CCN(C(=O)Cc3cc(F)c(F)cc3F)C[C@H]2CN(C([2H])([2H])[2H])C([2H])([2H])[2H])c1 [II-11hydrochloride] | 6.46 | 747 | > 50 | 12.8 | > 50 | 16.4 ± 2.3 | 10.4 ± 1.1 | > 50 | > 50 | 6.18 | 711 | 6.01 | 700 |  |  |  |  |  | 
[2H]C([2H])([2H])Oc1cccc([C@]2(O)CCN(S(=O)(=O)Cc3ccccc3)C[C@H]2CN(C([2H])([2H])[2H])C([2H])([2H])[2H])c1 [II-5hydrochloride] | 6.59 | 763 | > 50 | 15.3 | > 50 | 15.8 ± 4.6 | 12.9 ± 1.8 | > 50 | > 50 | 6.25 | 704 | 6.05 | 706 |  |  |  |  |  | 
[2H]C([2H])([2H])N(C[C@@H]1CN(S(=O)(=O)Cc2ccccc2)CC[C@@]1(O)c1cccc(OC)c1)C([2H])([2H])[2H] [II-3hydrochloride] | 5.72 | 697 | > 50 | 13.8 | > 50 | 15.3 ± 2.0 | 12.3 ± 2.0 | 46.8 | 43.6 | 5.46 | 685 | 5.24 | 660 |  |  |  |  |  | 
[2H]C([2H])([2H])N(C[C@@H]1CN(C(=O)Cc2cc(F)c(F)cc2F)CC[C@@]1(O)c1cccc(OC)c1)C([2H])([2H])[2H] [II-9hydrochloride] | 5.55 | 681 | > 50 | 13.7 | > 50 | 17.2 ± 3.5 | 12.8 ± 0.8 | 48 | 47 | 5.32 | 673 | 5.03 | 612 |  |  |  |  |  | 
